Values quoted from earlier work, collected in US20080161248A1, “Methods and Compositions for Therapeutic Treatment” (priority 2006, published 2008).
Read-outs that look alike come from different tables or passages of the source.

Assays:
murine or human T cells = conditions: cited from earlier work
[1] = body surface area corrections, cited from earlier work
[2] = US heart transplantation study; cited from earlier work
[3] = kidney transplant patients, cited from earlier work

SMILES: C=CC[C@@H]1/C=C(\C)C[C@H](C)C[C@H](OC)C2O[C@@](O)(C(=O)C(=O)N3CCCC[C@H]3C(=O)O[C@H](/C(C)=C/[C@@H]3CC[C@@H](O)[C@H](OC)C3)[C@H](C)[C@@H](O)CC1=O)[C@H](C)C[C@@H]2OC (relative stereo) [Prograf, [3S-[3R[E(1S*,3S*,4S*)], 4S*,5R*,8S*,9E,12R*,14R*,15S*,16R*,18S*,19S*,26aR*]]-,6,8,11,12,13,14,15,16,17,18,19,24,25,26,26a-hexadecahydro-5,19-dihydroxy-3-[2-(4-hydroxy-3-methoxycyclohexyl)-1-methylethenyl]-14,16-dimethoxy-4,10,12,18-tetramethyl-8-(2-propenyl)-15,19-epoxy-3H-pyrido[2,1-c][1,4]oxaazacyclotricosine-1,7,20,21 (4H,23H)-tetrone, monohydrate]
- concentrations inhibiting proliferation of stimulated T cells (murine or human T cells; T cells stimulated by specific antigens, antibodies to TCR/CD3 or mitogenic lectins): subnanomolar
- potency relative to cyclosporin A (CsA) (murine or human T cells; higher potency than CsA, disrupting calcium signaling leading to lymphokine production): 50-100 fold
- dose at or above which mortalities were seen ([1]; adult rats, IV): ≥ 16 × the recommended human IV dose
- dose at or above which mortalities were seen ([1]; adult rats, oral): ≥ 52 × the recommended human oral dose
- dose at or above which mortalities were seen ([1]; immature rats, oral): ≥ 16 × the recommended oral dose
- Other targeted treatment-emergent adverse events (Cushingoid features, impaired wound healing, hyperkalemia, Candida infection, CMV infection/syndrome), rate [2]: less than 15%
- Adverse event: Abdominal Pain [3]: 33%
- Adverse event: Anemia [3]: 30%
- Adverse event: Arthralgia [3]: 25%
- Adverse event: Asthenia [3]: 34%
- Adverse event: Back Pain [3]: 24%
- Adverse event: Chest pain [3]: 19%
- Adverse event: Constipation [3]: 35%
- Adverse event: Cough Increased [3]: 18%
- Adverse event: Creatinine Increased [3]: 45%
- Adverse event: Diabetes Mellitus [3]: 24%
- Adverse event: Diarrhea [3]: 44%
- Adverse event: Dizziness [3]: 19%
- Adverse event: Dyspepsia [3]: 28%
- Adverse event: Dyspnea [3]: 22%
- Adverse event: Edema [3]: 18%
- Adverse event: Fever [3]: 29%
- Adverse event: Headache [3]: 44%
- Adverse event: Hyperglycemia [3]: 22%
- Adverse event: Hyperkalemia [3]: 31%
- Adverse event: Hyperlipemia [3]: 31%
- Adverse event: Hypertension [3]: 50%
- Adverse event: Hypokalemia [3]: 22%
- Adverse event: Hypomagnesemia [3]: 34%
- Adverse event: Hypophosphatemia [3]: 49%
- Adverse event: Infection [3]: 45%
- Adverse event: Insomnia [3]: 32%
- Adverse event: Leukopenia [3]: 15%
- Adverse event: Nausea [3]: 38%
- Adverse event: Pain [3]: 32%
- Adverse event: Paresthesia [3]: 23%
- Adverse event: Peripheral Edema [3]: 36%
- Adverse event: Pruritus [3]: 15%
- Adverse event: Rash [3]: 17%
- Adverse event: Urinary Tract Infection [3]: 34%
- Adverse event: Vomiting [3]: 29%
- Adverse event: Tremor ([3]; monohydrate): 54%
